# Reference: ChEMBL document CHEMBL4706474, “Tetrahydro-2-naphthyl and 2-Indanyl Triazolopyrimidines Targeting Plasmodium falciparum Dihydroorotate Dehydrogenase Display Potent and Selective Antimalarial Activity” (J Med Chem, 2016)
# System: not listed separately
# Experiment: Kinetic solubility of compound in phosphate buffer at pH 6.5 measured after 30 mins by HPLC-UV based analysis
# Format: physicochemical
# Details: phosphate buffer, pH 6.5, read-out: Kinetic_solubility
row,SMILES,solubility kinetic at 0.5 h [µg/mL]
1,Cc1cc(NC2Cc3ccc(Cl)cc3C2)n2nc(C(C)(F)F)nc2n1 (stereo not given),6.3
2,COc1ccc2c(c1)CC(Nc1cc(C)nc3nc(C(C)(F)F)nn13)CC2 (stereo in doubt; 16),12.5
3,Cc1cc(NC2CCc3cc(C(F)(F)F)c(F)cc3C2)n2nc(C(C)(F)F)nc2n1 (stereo not given),1.6
4,Cc1cc(NC2Cc3ccccc3C2)n2nc(C(C)(F)F)nc2n1,25
5,Cc1cc(NC2Cc3c(C)ccc(C)c3C2)n2nc(C(C)(F)F)nc2n1,6.3

# System: not listed separately
# Experiment: Intrinsic clearance in human pooled liver microsomes assessed per mg protein at 1 uM by LC-MS analysis
# Format: ADME, Microsome
# Details: microsomes, 1 µM
row,SMILES,microsomal intrinsic clearance [µL/min]
1,Cc1cc(NC2CCc3cc(F)c(F)cc3C2)n2nc(C(C)(F)F)nc2n1 (stereo in doubt; 19),11
2,Cc1cc(NC2Cc3ccc(Cl)cc3C2)n2nc(C(C)(F)F)nc2n1 (stereo not given),10
3,COc1ccc2c(c1)CC(Nc1cc(C)nc3nc(C(C)(F)F)nn13)CC2 (stereo in doubt; 16),18
4,Cc1cc(NC2CCc3cc(C(F)(F)F)c(F)cc3C2)n2nc(C(C)(F)F)nc2n1 (stereo not given),< 7
5,Cc1cc(NC2Cc3ccccc3C2)n2nc(C(C)(F)F)nc2n1,24
6,Cc1cc(NC2Cc3c(C)ccc(C)c3C2)n2nc(C(C)(F)F)nc2n1,168

# System: Plasmodium falciparum
# Experiment: Antiplasmodial activity against Plasmodium falciparum 3D7 infected in NSG mouse assessed as blood AUC level require to show 90% reduction in parasitemia administered orally on day 3 post-infection QD for 4 days and measured after 24 hrs post dose by LC-MS/MS analysis
# Format: functional, organism-based
# Details: time 4.0 day
row,SMILES,AUCED90 [µM.hr/day]
1,Cc1cc(NC2CCc3cc(Cl)ccc3C2)n2nc(C(C)(F)F)nc2n1 (stereo in doubt),> 23

# System: not listed separately
# Experiment: Intrinsic clearance in mouse liver microsomes at 1 uM by LC-MS analysis
# Format: ADME, Microsome
# Details: not given
row,SMILES,intrinsic clearance [µL/min]
1,Cc1cc(NC2CCc3cc(F)c(F)cc3C2)n2nc(C(C)(F)F)nc2n1 (stereo in doubt; 19),59
2,Cc1cc(NC2Cc3ccc(Cl)cc3C2)n2nc(C(C)(F)F)nc2n1 (stereo not given),43
3,COc1ccc2c(c1)CC(Nc1cc(C)nc3nc(C(C)(F)F)nn13)CC2 (stereo in doubt; 16),25
4,Cc1cc(NC2CCc3cc(C(F)(F)F)c(F)cc3C2)n2nc(C(C)(F)F)nc2n1 (stereo not given),< 7
5,Cc1cc(NC2Cc3ccccc3C2)n2nc(C(C)(F)F)nc2n1,1004
6,Cc1cc(NC2Cc3c(C)ccc(C)c3C2)n2nc(C(C)(F)F)nc2n1,1000

# System: not listed separately
# Experiment: Inhibition of N-terminal His6-tagged Plasmodium falciparum DHODH expressed in Escherichia coli BL21 using L-DHO as substrate and CoQ as co-substrate by DCIP dye based spectrophotometric assay
# Details: not given
row,SMILES,IC50 [nM]
1,Cc1cc(NC2CCc3ccc(Cl)cc3C2)n2nc(C(F)(F)F)nc2n1 (stereo in doubt; 25),1100
2,Cc1cc(NC2CCc3cc(F)c(F)cc3C2)n2nc(C(C)(F)F)nc2n1 (stereo in doubt; 19),60
3,Cc1cc(NC2Cc3ccc(Cl)cc3C2)n2nc(C(C)(F)F)nc2n1 (stereo not given),85
4,COc1ccc2c(c1)CC(Nc1cc(C)nc3nc(C(C)(F)F)nn13)CC2 (stereo in doubt; 16),21
5,Cc1cc(NC2CCc3cc(C(F)(F)F)c(F)cc3C2)n2nc(C(C)(F)F)nc2n1 (stereo not given),87
6,Cc1cc(NC2Cc3ccccc3C2)n2nc(C(C)(F)F)nc2n1,48
7,Cc1cc(NC2Cc3c(C)ccc(C)c3C2)n2nc(C(C)(F)F)nc2n1,14

# System: Plasmodium falciparum
# Experiment: Antiplasmodial activity against Plasmodium falciparum 3D7 infected in RBC assessed as reduction in parasitemia incubated for 72 hrs by SYBR green dye-based assay
# Format: functional, organism-based
# Details: Plasmodium falciparum, 3D7, Erythrocyte, 72 h
row,SMILES,EC50 [nM]
1,Cc1cc(NC2Cc3ccc(Cl)cc3C2)n2nc(C(C)(F)F)nc2n1 (stereo not given),120
2,Cc1cc(NC2CCc3cc(C(F)(F)F)c(F)cc3C2)n2nc(C(C)(F)F)nc2n1 (stereo not given),3300
3,Cc1cc(NC2Cc3ccccc3C2)n2nc(C(C)(F)F)nc2n1,36
4,Cc1cc(NC2Cc3c(C)ccc(C)c3C2)n2nc(C(C)(F)F)nc2n1,0.39

# Same assay, conditions: rbc
row,SMILES,EC50 [nM]
1,Cc1cc(NC2CCc3ccc(Cl)cc3C2)n2nc(C(F)(F)F)nc2n1 (stereo in doubt; 25),1500
2,Cc1cc(NC2CCc3cc(F)c(F)cc3C2)n2nc(C(C)(F)F)nc2n1 (stereo in doubt; 19),22
3,COc1ccc2c(c1)CC(Nc1cc(C)nc3nc(C(C)(F)F)nn13)CC2 (stereo in doubt; 16),25

# System: not listed separately
# Experiment: Intrinsic clearance in rat liver microsomes assessed per mg protein at 1 uM by LC-MS analysis
# Format: ADME, Microsome
# Details: microsomes, 1 µM
row,SMILES,Intrinsic clearance in rat liver microsomes (uL/min/mg protein) [µL/min]
1,Cc1cc(NC2CCc3cc(F)c(F)cc3C2)n2nc(C(C)(F)F)nc2n1 (stereo in doubt; 19),24
2,Cc1cc(NC2Cc3ccc(Cl)cc3C2)n2nc(C(C)(F)F)nc2n1 (stereo not given),54
3,COc1ccc2c(c1)CC(Nc1cc(C)nc3nc(C(C)(F)F)nn13)CC2 (stereo in doubt; 16),19
4,Cc1cc(NC2CCc3cc(C(F)(F)F)c(F)cc3C2)n2nc(C(C)(F)F)nc2n1 (stereo not given),< 7
5,Cc1cc(NC2Cc3ccccc3C2)n2nc(C(C)(F)F)nc2n1,245
6,Cc1cc(NC2Cc3c(C)ccc(C)c3C2)n2nc(C(C)(F)F)nc2n1,178

# System: not listed separately
# Experiment: Inhibition of N-terminal His6-tagged Plasmodium vivax DHODH expressed in Escherichia coli BL21 using L-DHO as substrate and CoQ as co-substrate by DCIP dye based spectrophotometric assay
# Details: not given
row,SMILES,IC50 [nM]
1,Cc1cc(NC2CCc3cc(F)c(F)cc3C2)n2nc(C(C)(F)F)nc2n1 (stereo in doubt; 19),71
2,COc1ccc2c(c1)CC(Nc1cc(C)nc3nc(C(C)(F)F)nn13)CC2 (stereo in doubt; 16),130
3,Cc1cc(NC2CCc3cc(C(F)(F)F)c(F)cc3C2)n2nc(C(C)(F)F)nc2n1 (stereo not given),820
4,Cc1cc(NC2Cc3c(C)ccc(C)c3C2)n2nc(C(C)(F)F)nc2n1,24

# Target: Dihydroorotate dehydrogenase (quinone), mitochondrial (Homo sapiens, UniProt Q02127)
# Sequence (Q02127 whole entry): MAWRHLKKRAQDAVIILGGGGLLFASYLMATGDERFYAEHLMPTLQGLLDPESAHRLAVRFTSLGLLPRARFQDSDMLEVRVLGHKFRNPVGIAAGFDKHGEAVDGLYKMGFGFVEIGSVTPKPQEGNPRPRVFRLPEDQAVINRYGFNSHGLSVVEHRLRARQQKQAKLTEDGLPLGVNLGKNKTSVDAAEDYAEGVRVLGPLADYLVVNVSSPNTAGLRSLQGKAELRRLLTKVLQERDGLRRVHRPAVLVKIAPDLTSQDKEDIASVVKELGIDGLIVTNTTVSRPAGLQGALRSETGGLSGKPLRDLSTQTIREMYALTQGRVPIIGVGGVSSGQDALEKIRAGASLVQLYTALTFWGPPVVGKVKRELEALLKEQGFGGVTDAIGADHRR
# Experiment: Inhibition of N-terminal His6-tagged human DHODH expressed in Escherichia coli BL21 using L-DHO as substrate and CoQ as co-substrate by DCIP dye based spectrophotometric assay
# Details: not given
row,SMILES,IC50 [nM]
1,Cc1cc(NC2CCc3cc(C(F)(F)F)c(F)cc3C2)n2nc(C(C)(F)F)nc2n1 (stereo not given),> 100000
2,Cc1cc(NC2Cc3ccccc3C2)n2nc(C(C)(F)F)nc2n1,> 100000
3,Cc1cc(NC2Cc3c(C)ccc(C)c3C2)n2nc(C(C)(F)F)nc2n1,> 100000

# System: not listed separately
# Experiment: Lipophilicity, logD of the compound at pH 7.4
# Format: physicochemical
# Details: buffer
row,SMILES,logD
1,Cc1cc(NC2Cc3ccc(Cl)cc3C2)n2nc(C(C)(F)F)nc2n1 (stereo not given),3.5
2,COc1ccc2c(c1)CC(Nc1cc(C)nc3nc(C(C)(F)F)nn13)CC2 (stereo in doubt; 16),3.3
3,Cc1cc(NC2CCc3cc(C(F)(F)F)c(F)cc3C2)n2nc(C(C)(F)F)nc2n1 (stereo not given),4.1
4,Cc1cc(NC2Cc3ccccc3C2)n2nc(C(C)(F)F)nc2n1,3.1
5,Cc1cc(NC2Cc3c(C)ccc(C)c3C2)n2nc(C(C)(F)F)nc2n1,3.8
